What was measured:
[1] = target: GDP-bound KRAS wild-type protein (Homo sapiens, UniProt P01116); assay: Binding to KRAS by surface plasmon resonance (SPR), Single Cycle Kinetics; details: SPR, Single Cycle Kinetics, GDP-bound KRAS wild-type protein; read-out: KRAS KD
[2] = target: GDP-bound HRAS wild-type protein (Homo sapiens, UniProt P01112); assay: Binding to HRAS by surface plasmon resonance (SPR), Single Cycle Kinetics; details: ratio of KD for GDP-bound HRAS wild-type protein to KD for KRAS, SPR
Chain of GDP-bound HRAS wild-type protein (P01112 whole entry): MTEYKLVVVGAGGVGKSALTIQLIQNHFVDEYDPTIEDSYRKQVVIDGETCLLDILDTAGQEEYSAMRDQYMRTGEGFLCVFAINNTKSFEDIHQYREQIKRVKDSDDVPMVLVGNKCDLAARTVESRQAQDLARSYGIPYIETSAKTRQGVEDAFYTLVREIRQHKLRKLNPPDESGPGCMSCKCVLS

[3] = target: GDP-bound NRAS wild-type protein (Homo sapiens, UniProt P01111); assay: Binding to NRAS by surface plasmon resonance (SPR), Single Cycle Kinetics; details: ratio of KD for GDP-bound NRAS wild-type protein to KD for KRAS, SPR
Chain of GDP-bound NRAS wild-type protein (P01111 whole entry): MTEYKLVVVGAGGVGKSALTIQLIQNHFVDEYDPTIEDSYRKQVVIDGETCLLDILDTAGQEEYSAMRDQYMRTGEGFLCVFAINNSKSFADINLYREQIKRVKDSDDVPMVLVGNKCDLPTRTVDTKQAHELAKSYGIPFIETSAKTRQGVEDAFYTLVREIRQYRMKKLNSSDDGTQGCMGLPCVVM

[4] = system: human lung cancer strain NCI-H441; assay: cells; details: NCI-H441, 96 h, read-out: NCI-H441 IC50 (nM), NCI-H441 cell proliferation, 4 days, CellTiter-Glo;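 note: cell proliferation inhibition after four days measured by CellTiter-Glo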

Chain of GDP-bound KRAS wild-type protein (P01116 whole entry): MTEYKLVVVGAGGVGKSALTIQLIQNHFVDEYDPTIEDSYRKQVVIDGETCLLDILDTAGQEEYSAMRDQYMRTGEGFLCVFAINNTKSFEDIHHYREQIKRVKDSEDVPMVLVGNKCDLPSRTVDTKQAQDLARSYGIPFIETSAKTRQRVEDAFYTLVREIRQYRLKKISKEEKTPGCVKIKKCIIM

Compound | Kd [1] | IC50 [4] | HRAS/KRAS (KD ratio) [2] | NRAS/KRAS (KD ratio) [3]
CCC[C@H]1C(=O)N[C@@H]([C@@H](C)CC)C(=O)N(C)CC(=O)N(C)[C@H]2C/C=C\CCN(C2=O)[C@@H](Cc2ccc(C(F)(F)F)cc2)C(=O)N(C)CC(=O)N[C@@H](CCc2cc(F)c(C(F)(F)F)c(F)c2)C(=O)N2C[C@H](OCC)C[C@H]2C(=O)NC2(CC(F)(F)C2)C(=O)N(C)[C@@H](C2CCCC2)C(=O)N(C)[C@H](C(=O)N(C)CC)CC(=O)N1C [PP1735] | 0.081 nM | 2.2 nM | A (a compound having 10 or more and less than 20 is denoted as A) | AA (a compound having 20 or more is denoted as AA)
CCC[C@H]1C(=O)N[C@@H]([C@@H](C)CC)C(=O)N(C)CC(=O)N(C)[C@H]2C/C=C\CCN(C2=O)[C@@H](Cc2ccc(C(F)(F)F)cc2)C(=O)N(C)CC(=O)N[C@@H](CCc2cc(F)c(C(F)(F)F)c(F)c2)C(=O)N2C[C@H](OCC)C[C@H]2C(=O)NC2(CC(F)(F)C2)C(=O)N(C)[C@@H](C2CCCC2)C(=O)N(C)[C@H](C(=O)N(C)CCC)CC(=O)N1C [PP1736] | 0.13 nM | 3.6 nM | A (a compound having 10 or more and less than 20 is denoted as A) | A (a compound having 10 or more and less than 20 is denoted as A)

More lines, main results first:

Kd [1] | IC50 [4] | Compound | HRAS/KRAS (KD ratio) [2] | NRAS/KRAS (KD ratio) [3]
0.11 nM | 2.7 nM | C#CC[C@H]1C(=O)N[C@@H]([C@@H](C)CC)C(=O)N(C)CC(=O)N(C)[C@H]2C/C=C\CCN(C2=O)[C@@H](Cc2ccc(C(F)(F)F)cc2)C(=O)N(C)CC(=O)N[C@@H](CCc2cc(F)c(C(F)(F)F)c(F)c2)C(=O)N2C[C@H](OCC)C[C@H]2C(=O)NC2(CC(F)(F)C2)C(=O)N(C)[C@@H](C2CCCC2)C(=O)N(C)[C@H](C(=O)N(C)CCC)CC(=O)N1C [PP1737] | A (a compound having 10 or more and less than 20 is denoted as A) | A (a compound having 10 or more and less than 20 is denoted as A)
0.071 nM | 5.1 nM | CCO[C@@H]1C[C@H]2C(=O)NC3(CC(F)(F)C3)C(=O)N(C)[C@@H](C3CCCC3)C(=O)N(C)[C@H](C(=O)N(C)CC)CC(=O)N(C)[C@@H](CC3CC3)C(=O)N[C@@H]([C@@H](C)CC)C(=O)N(C)CC(=O)N(C)[C@H]3C/C=C\CCN(C3=O)[C@@H](Cc3ccc(C(F)(F)F)cc3)C(=O)N(C)CC(=O)N[C@@H](CCc3cc(F)c(C(F)(F)F)c(F)c3)C(=O)N2C1 [PP1738] | A (a compound having 10 or more and less than 20 is denoted as A) | AA (a compound having 20 or more is denoted as AA)
0.054 nM | 5.5 nM | CCCN(C)C(=O)[C@@H]1CC(=O)N(C)[C@@H](CC2CC2)C(=O)N[C@@H]([C@@H](C)CC)C(=O)N(C)CC(=O)N(C)[C@H]2C/C=C\CCN(C2=O)[C@@H](Cc2ccc(C(F)(F)F)cc2)C(=O)N(C)CC(=O)N[C@@H](CCc2cc(F)c(C(F)(F)F)c(F)c2)C(=O)N2C[C@H](OCC)C[C@H]2C(=O)NC2(CC(F)(F)C2)C(=O)N(C)[C@@H](C2CCCC2)C(=O)N1C [PP1739] | AA (a compound having 20 or more is denoted as AA) | AA (a compound having 20 or more is denoted as AA)
0.039 nM | 2.3 nM | CCO[C@@H]1C[C@H]2C(=O)NC3(CC(F)(F)C3)C(=O)N(C)[C@@H](C3CCCC3)C(=O)N(C)[C@H](C(=O)N(C)C)CC(=O)N(C)[C@@H](CC(C)C)C(=O)N[C@@H]([C@@H](C)CC)C(=O)N(C)CC(=O)N(C)[C@H]3C/C=C\CCN(C3=O)[C@@H](Cc3ccc(C(F)(F)F)cc3)C(=O)N(C)CC(=O)N[C@@H](CCc3cc(F)c(C(F)(F)F)c(F)c3)C(=O)N2C1 [PP1741] | B (a compound having 3 or more and less than 10 is denoted as B) | A (a compound having 10 or more and less than 20 is denoted as A)

Source: patent US20240158446A1, “CYCLIC COMPOUND HAVING SELECTIVE INHIBITORY ACTION ON KRAS OVER HRAS AND NRAS” (CHUGAI SEIYAKU KABUSHIKI KAISHA, priority 2021, published 2024)
